Data on one compound can be found in BindingDB's records for doi:10.1021/ml200206z (2011).

Each structure is given as a SMILES string.

In the experiment the target is T1, 5-hydroxytryptamine receptor 2C (Homo sapiens, UniProt P28335).
T1 sequence (P28335 whole entry): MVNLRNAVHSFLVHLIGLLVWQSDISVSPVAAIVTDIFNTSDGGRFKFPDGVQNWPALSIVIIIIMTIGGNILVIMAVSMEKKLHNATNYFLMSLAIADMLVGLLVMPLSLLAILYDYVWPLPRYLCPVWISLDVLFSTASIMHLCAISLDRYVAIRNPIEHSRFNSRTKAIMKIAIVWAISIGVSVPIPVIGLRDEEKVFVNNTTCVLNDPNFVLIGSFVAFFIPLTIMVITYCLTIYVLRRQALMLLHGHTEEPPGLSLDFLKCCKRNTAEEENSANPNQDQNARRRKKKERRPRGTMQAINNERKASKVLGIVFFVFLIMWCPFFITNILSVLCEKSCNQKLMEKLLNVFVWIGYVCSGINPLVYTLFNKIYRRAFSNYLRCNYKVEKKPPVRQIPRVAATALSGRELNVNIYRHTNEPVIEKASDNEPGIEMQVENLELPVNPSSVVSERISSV
In words: Agonist activity at human 5HT2C receptor expressed in HEK293 cells assessed as calcium flux measured every sec for 3 mins by FLIPR assay. For orientation: Calcium assays in cells follow changes in intracellular calcium, usually with a dye or a luminescent sensor.

With `NC[C@H]1C[C@@H]1c1ccccc1OCC1CC1`, the concentration for a half-maximal effect (EC50) – broadly, the concentration that produces a half-maximal response – worked out at 120 nM.
